Measured values taken from ChEMBL document CHEMBL1123796, “New antitumor agents containing the anthracene nucleus” (1987).

How the values were obtained:
Assay type in all cases: functional
L1210 [1] = experiment: Effect on RNA synthesis was determined by incorporation of radioligand into L1210 murine leukemia at a concentration of 10 ug/mL (*: >1 log cell kill); conditions: Mus musculus
L1210 [2] = experiment: Antileukemic activity against L-1210 cells in mice at a dose of 70 mg/kg administered intraperitoneally after 5 day treatment; conditions: Mus musculus, L1210, ip, 120 h, route intraperitoneal
Mus musculus [3] = experiment: Tested for percent average weekly weight change in mice at a significant dose of 90 mg/kg administered intraperitoneally after 5 days of treatment; conditions: route intraperitoneal
RPMI-8226 [4] = experiment: Effect on protein synthesis was determined by incorporation of radioligand into 8226 human myeloma cells at a concentration of 10 ug/mL (*: >1 log cell kill)
RPMI-8226 [5] = experiment: Effect on RNA synthesis was determined by incorporation of radioligand into 8226 human myeloma cells at a concentration of 0.01 ug/mL
Mus musculus [6] = experiment: Tested for percent average weekly weight change in mice at a significant dose of 37.5 mg/kg administered intraperitoneally after 5 days of treatment; conditions: route intraperitoneal
RPMI-8226 [7] = experiment: In vitro inhibition of human 8226 myeloma tumor cell line growth.; conditions: read-out: ID50 (the source's name)
P388 [8] = experiment: Antileukemic activity against P-388 in mice at a dose of 90 mg/kg administered intraperitoneally after 1 day treatment; conditions: Mus musculus, P388, ip, 24 h, route intraperitoneal
Mus musculus [9] = experiment: Tested for percent average weekly weight change in mice at a significant dose of 70 mg/kg administered intraperitoneally after 5 days of treatment; conditions: route intraperitoneal
RPMI-8226 [10] = experiment: Effect on DNA synthesis was determined by incorporation of radioligand into 8226 human myeloma cells at a concentration of 10 ug/mL (*: >1 log cell kill)
Mus musculus [11] = experiment: Tested for high-dose toxicity in mice at a significant dose of 70 mg/kg administered intraperitoneally after 5 days of treatment; conditions: route intraperitoneal
RPMI-8226 [12] = experiment: Effect on RNA synthesis was determined by incorporation of radioligand into 8226 human myeloma cells at a concentration of 10 ug/mL (*: >1 log cell kill)
RPMI-8226 [13] = experiment: Effect on DNA synthesis was determined by incorporation of radioligand into 8226 human myeloma cells at a concentration of 0.01 ug/mL
L1210 [14] = experiment: Effect on DNA synthesis was determined by incorporation of radioligand into L1210 murine leukemia at a concentration of 0.3 ug/mL (*: >50% cell kill); conditions: Mus musculus
P388 [15] = experiment: Antileukemic activity against P-388 in mice at a dose of 80 mg/kg administered intraperitoneally after 1 day treatment; conditions: Mus musculus, P388, ip, 24 h, route intraperitoneal
L1210 [16] = experiment: Effect on DNA synthesis was determined by incorporation of radioligand into L1210 murine leukemia at a concentration of 0.01 ug/mL; conditions: Mus musculus
L1210 [17] = experiment: Antileukemic activity against L-1210 cells in mice at a dose of 37.5 mg/kg administered intraperitoneally after 5 day treatment; conditions: Mus musculus, L1210, ip, 120 h, route intraperitoneal
L1210 [18] = experiment: Effect on protein synthesis was determined by incorporation of radioligand into L1210 murine leukemia at a concentration of 0.5 ug/mL. (*: >1 log cell kill); conditions: Mus musculus
Mus musculus [19] = experiment: Tested for percent average weekly weight change in mice at a significant dose of 80 mg/kg administered intraperitoneally after 5 days of treatment; conditions: route intraperitoneal
L1210 [20] = experiment: Effect on RNA synthesis was determined by incorporation of radioligand into L1210 murine leukemia at a concentration of 0.01 ug/mL; conditions: Mus musculus
[21] = In vitro inhibition of human UACC-66 ovarian tumor cell line growth.; conditions: read-out: ID50 (the source's name)
L1210 [22] = experiment: Effect on DNA synthesis was determined by incorporation of radioligand into L1210 murine leukemia at a concentration of 0.5 ug/mL. (*: >1 log cell kill); conditions: Mus musculus
Mus musculus [23] = experiment: Tested for percent average weekly weight change in mice at a significant dose of 30 mg/kg administered intraperitoneally; conditions: route intraperitoneal
L1210 [24] = experiment: Effect on protein synthesis was determined by incorporation of radioligand into L1210 murine leukemia at a concentration of 0.01 ug/mL; conditions: Mus musculus
P388 [25] = experiment: Antileukemic activity against P-388 in mice at a dose of 60 mg/kg administered intraperitoneally after 1 day treatment; conditions: Mus musculus, P388, ip, 24 h, route intraperitoneal
P388 [26] = experiment: Antileukemic activity against P-388 in mice at a dose of 37.5 mg/kg administered intraperitoneally after 5 day treatment; conditions: Mus musculus, P388, ip, 120 h, route intraperitoneal
Mus musculus [27] = experiment: Tested for high-dose toxicity in mice at a significant dose of 30 mg/kg administered intraperitoneally after 5 days of treatment; conditions: route intraperitoneal
Mus musculus [28] = experiment: Tested for high-dose toxicity in mice at a significant dose of 52.5 mg/kg administered intraperitoneally after 5 days of treatment; conditions: route intraperitoneal
Mus musculus [29] = experiment: Tested for high-dose toxicity in mice at a significant dose of 80 mg/kg administered intraperitoneally after 1 days of treatment; conditions: route intraperitoneal
Mus musculus [30] = experiment: Tested for high-dose toxicity in mice at a significant dose of 37.5 mg/kg administered intraperitoneally after 5 days of treatment; conditions: route intraperitoneal
Mus musculus [31] = experiment: Tested for percent average weekly weight change in mice at a significant dose of 90 mg/kg administered intraperitoneally after 1 days of treatment; conditions: route intraperitoneal
Mus musculus [32] = experiment: Tested for skin toxicity in BALB/c mice at a significant dose of 1.25 mg/kg administered intraintradermally and involved concentric circular areas of induration.
Mus musculus [33] = experiment: Tested for high-dose toxicity in mice at a significant dose of 80 mg/kg administered intraperitoneally after 5 days of treatment; conditions: route intraperitoneal
RPMI-8226 [34] = experiment: Effect on protein synthesis was determined by incorporation of radioligand into 8226 human myeloma cells at a concentration of 1 ug/mL. (*: >1 log cell kill)
Mus musculus [35] = experiment: Tested for skin toxicity in BALB/c mice at a significant dose of 2.5 mg/kg administered intraintradermally and involved concentric circular areas of induration.
RPMI-8226 [36] = experiment: Effect on RNA synthesis was determined by incorporation of radioligand into 8226 human myeloma cells at a concentration of 1 ug/mL. (*: >1 log cell kill)
L1210 [37] = experiment: Antileukemic activity against L-1210 cells in mice at a dose of 60 mg/kg administered intraperitoneally after 5 day treatment; conditions: Mus musculus, L1210, ip, 120 h, route intraperitoneal
Mus musculus [38] = experiment: Tested for percent average weekly weight change in mice at a significant dose of 45 mg/kg administered intraperitoneally after 5 days of treatment; conditions: route intraperitoneal
P388 [39] = experiment: Antileukemic activity against P-388 in mice at a dose of 80 mg/kg administered intraperitoneally after 5 day treatment; conditions: Mus musculus, P388, ip, 120 h, route intraperitoneal
P388 [40] = experiment: Antileukemic activity against P-388 in mice at a dose of 100 mg/kg administered intraperitoneally after 1 day treatment; conditions: Mus musculus, P388, ip, 24 h, route intraperitoneal
RPMI-8226 [41] = experiment: Effect on RNA synthesis was determined by incorporation of radioligand into 8226 human myeloma cells at a concentration of 0.5 ug/mL. (*: >1 log cell kill)
[42] = Tested in vitro for inhibitory activity of human tumor cell growth against HEC 1A endometrial tumor, by using clonogenic assays.; conditions: read-out: ID50 (the source's name)

Question: With CN(C)CCNCc1c2ccccc2c(CNCCN(C)C)c2ccccc12 as the compound, how does the inhibition at 10 µg/mL (L1210 [1]) read?
Answer: 96.3%

Question: What about the ILS at 70 mg/kg (L1210 [2]) of the same compound?
Answer: 30%

Question: What about the “Average weekly weight change” value (Mus musculus [3]) of the same compound?
Answer: -11%

Question: And the inhibition at 10 µg/mL (RPMI-8226 [4])?
Answer: 17.6%

Question: And the inhibition at 0.01 µg/mL (RPMI-8226 [5])?
Answer: 0%

Question: And the “Average weekly weight change” value (Mus musculus [6])?
Answer: -7%

Question: What about the IC50 (RPMI-8226 [7]) of the same compound?
Answer: 0.16 µM

Question: What about the ILS at 90 mg/kg (P388 [8]) of the same compound?
Answer: -10%

Question: And the “Average weekly weight change” value (Mus musculus [9])?
Answer: -7%

Question: What about the inhibition at 10 µg/mL (RPMI-8226 [10]) of the same compound?
Answer: 82.2%

Question: And the Lethality (Mus musculus [11])?
Answer: 10%

Question: And the “Median day of death” value (Mus musculus [11])?
Answer: 0

Question: And the inhibition at 10 µg/mL (RPMI-8226 [12])?
Answer: 91.4%

Question: And the inhibition at 0.01 µg/mL (RPMI-8226 [13])?
Answer: 0%

Question: And the inhibition at 0.3 µg/mL (L1210 [14])?
Answer: 0%

Question: And the ILS at 80 mg/kg (P388 [15])?
Answer: 36%

Question: And the inhibition at 0.01 µg/mL (L1210 [16])?
Answer: 0%

Question: What about the ILS at 37.5 mg/kg (L1210 [17]) of the same compound?
Answer: 11%

Question: What about the inhibition at 0.5 µg/mL (L1210 [18]) of the same compound?
Answer: 21.8%

Question: And the “Average weekly weight change” value (Mus musculus [19])?
Answer: -10%

Question: And the inhibition at 0.01 µg/mL (L1210 [20])?
Answer: 0%

Question: And the IC50 [21]?
Answer: 1.6 µM

Question: What about the inhibition at 0.5 µg/mL (L1210 [22]) of the same compound?
Answer: 5.8%

Question: What about the “Average weekly weight change” value (Mus musculus [23]) of the same compound?
Answer: -3%

Question: What about the inhibition at 0.01 µg/mL (L1210 [24]) of the same compound?
Answer: 0%

Question: And the ILS at 60 mg/kg (P388 [25])?
Answer: 11%

Question: What about the ILS at 37.5 mg/kg (P388 [26]) of the same compound?
Answer: 0%

Question: What about the Lethality (Mus musculus [27]) of the same compound?
Answer: 0%

Question: What about the Lethality (Mus musculus [28]) of the same compound?
Answer: 100%

Question: And the “Median day of death” value (Mus musculus [28])?
Answer: 4

Question: What about the Lethality (Mus musculus [29]) of the same compound?
Answer: 10%

Question: What about the “Median day of death” value (Mus musculus [29]) of the same compound?
Answer: 12

Question: And the Lethality (Mus musculus [30])?
Answer: 20%

Question: What about the “Median day of death” value (Mus musculus [30]) of the same compound?
Answer: 2

Question: And the “Average weekly weight change” value (Mus musculus [31])?
Answer: -5%

Question: What about the “Extent of skin lesions” value (Mus musculus [32]) of the same compound?
Answer: 4.3 cm**2

Question: What about the Lethality (Mus musculus [33]) of the same compound?
Answer: 20%

Question: And the “Median day of death” value (Mus musculus [33])?
Answer: 4

Question: What about the inhibition at 1 µg/mL (RPMI-8226 [34]) of the same compound?
Answer: 45.9%

Question: What about the “Extent of skin lesions” value (Mus musculus [35]) of the same compound?
Answer: 6.1 cm**2

Question: And the inhibition at 1 µg/mL (RPMI-8226 [36])?
Answer: 70.4%

Question: And the ILS at 60 mg/kg (L1210 [37])?
Answer: 27%

Question: What about the “Average weekly weight change” value (Mus musculus [38]) of the same compound?
Answer: -12%

Question: What about the ILS at 80 mg/kg (P388 [39]) of the same compound?
Answer: 0%

Question: What about the ILS at 100 mg/kg (P388 [40]) of the same compound?
Answer: -33%

Question: And the inhibition at 0.5 µg/mL (RPMI-8226 [41])?
Answer: 7.3%

Question: What about the IC50 [42] of the same compound?
Answer: 0.36 µM
